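Five concentrations, 48 hours, 96-well plates. GI50 marks 50% less growth. TGI: concentration producing complete growth inhibition.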
What was measured:
Experiment in all cases: NCI tumour cell line growth inhibition, 48 h
HCT-116 colon = test system: HCT-116 colon
HT29 colon = test system: HT29 colon
K-562 leukemia = test system: K-562 leukemia
MALME-3M melanoma = test system: MALME-3M melanoma
NCI/ADR-RES ovarian = test system: NCI/ADR-RES ovarian
RPMI-8226 leukemia = test system: RPMI-8226 leukemia
SF-268 CNS = test system: SF-268 CNS
SK-MEL-2 melanoma = test system: SK-MEL-2 melanoma
SN12C renal = test system: SN12C renal
UACC-62 melanoma = test system: UACC-62 melanoma

Row | Compound | TGI (HCT-116 colon) [µM] | TGI (HT29 colon) [µM] | TGI (K-562 leukemia) [µM] | TGI (MALME-3M melanoma) [µM] | TGI (NCI/ADR-RES ovarian) [µM] | TGI (RPMI-8226 leukemia) [µM] | TGI (SF-268 CNS) [µM] | TGI (SK-MEL-2 melanoma) [µM] | TGI (SN12C renal) [µM] | TGI (UACC-62 melanoma) [µM] | GI50 (HT29 colon) [µM] | GI50 (K-562 leukemia) [µM] | GI50 (MALME-3M melanoma) [µM] | GI50 (NCI/ADR-RES ovarian) [µM] | GI50 (RPMI-8226 leukemia) [µM] | GI50 (SF-268 CNS) [µM] | GI50 (SK-MEL-2 melanoma) [µM] | GI50 (SN12C renal) [µM] | GI50 (UACC-62 melanoma) [µM]
1 | Cc1ccc(C#CS(=O)(=O)C(F)(F)F)cc1 | > 100 | > 100 | > 100 | > 100 | > 100 | > 100 | > 100 | > 100 | > 100 | > 100 |  |  |  |  |  |  |  |  | 
2 | O=C(c1ccccc1O)c1cc(-c2ncc3c(=O)c4ccccc4oc3n2)c(-c2ccccc2O)[nH]c1=O | 47.4 | 77.6 | 75.1 | 74.4 | > 87.6 | 60.4 | > 75.9 | 46.3 | 63.7 | 51.4 |  |  |  |  |  |  |  |  | 
3 | N#Cc1ccc(C2Oc3ccc(Cl)cc3C=C2[N+](=O)[O-])cc1 (stereo not given) | 0.987 | 7.89 | 2.04 | 4.79 | > 100 | 1.25 | 4.16 | 4.09 |  | 3.09 |  |  |  |  |  |  |  |  | 
4 | COc1ccc([C@H]2c3cc4c(cc3OC(O)(CO)[C@H]2C(=O)O)OCO4)c(OC)c1 (stereo not given in full) (tested in a mixture with another compound) | > 100 | > 100 | > 100 | > 100 |  | > 100 | > 100 | > 100 | > 100 | > 100 |  |  |  |  |  |  |  |  | 
5 | COc1cc(/C(=C2/O[C@@H]([C@H]3COC(C)(C)O3)[C@H]3OC(C)(C)O[C@@H]23)c2ccc3c(c2)OCO3)cc(OC)c1OC |  | > 25 | > 25 | > 25 | > 25 | > 25 | > 25 | > 25 | > 25 | > 25 | > 25 | > 25 | > 25 | > 25 | > 25 | > 25 | > 25 | 18.8 | > 25
6 | O=C1c2cc3c(cc2CC1Cc1ccc2c(c1)CCC2)CCC3 (stereo not given) | > 100 | > 100 | > 100 | > 100 | > 100 | > 100 | > 100 | > 100 | > 100 | > 100 |  |  |  |  |  |  |  |  | 
7 | CCCCOc1ccc2c(c1)CC[C@@H]1[C@@H]2CC[C@]2(C)C(=O)N(CCCC)C(=O)C[C@@H]12 | > 100 | > 100 | > 100 | > 100 | > 100 | > 100 |  | > 100 | > 100 | > 100 |  |  |  |  |  |  |  |  | 
